Data on 15 molecules can be found in EP4752152A1, “STEROID COMPOUND, AND PREPARATION METHOD THEREFOR AND USE THEREOF” (Cholesgen (Shanghai) Co.Ltd., priority 2023, dated 2025).

The nature of series [1]: Solubility in fasted-state simulated intestinal fluid (FaSSIF). The series is classed as physicochemical. Conditions: FaSSIF pH 6.5, 300 µM sample solution, room temperature. Here is the method:
Compound powder was dissolved in DMSO to prepare a 10.0 mM stock solution for later use. 0.021 g NaOH, 0.198 g NaH2PO4, and 0.309 g NaCl were weighed and added to 50.0 mL of ultrapure water. After thorough mixing, the pH was adjusted to 6.5 using HCl or NaOH. Then, 0.112 g of FaSSIF powder was added. After complete dissolution, the solution was allowed to stand at room temperature for 2 hours for later use. A certain volume of the compound stock solution was added to a certain volume of FaSSIF to prepare a 300 µM sample solution, which was mixed at room temperature under 1000 rpm for 1 hour. After 1 hour, the sample was centrifuged, and a certain volume of supernatant was taken. The termination solution was added to precipitate the sample, which was then thoroughly mixed and centrifuged for 20 minutes. The supernatant was then taken again, diluted with dilution solution, and then analyzed by liquid chromatography-tandem mass spectrometry (LC-MS/MS). The concentration of the test compound in the samples was quantitatively determined using LC-MS/MS. Table 3: FaSSIF solubility results of compounds from some examples

Series [2] relates to SREBP pathway. Description: SREBP luciferase reporter gene system (SRE-luciferase assay). The class given is cell-based, human. Conditions: Huh-7/SRE-luc cells, sterol-deficient medium, 0.01-10 µM. The essentials:
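Huh-7 cells stably carrying LDLR promoter-luciferase plus GFP were treated 16 h in sterol-deficient medium (5% lipoprotein-deficient serum, 2 µM lovastatin, 10 µM mevalonic acid) at 0.01–10 µM. Luciferase/GFP ratio measured as pathway activity; inhibition versus DMSO fitted to a four-parameter model for IC50.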
For orientation: Reporter assays use an easily measured gene product as a stand-in for the process of interest.

In series [3] the test system is Fatty Acid Synthase (FASN) gene. Description: Inhibition of FASN gene expression (qPCR) in Huh-7 cells. Conditions: Huh-7 cells, starvation medium, 16 hours, qPCR, class symbols, read-out: FASN IC50. The series is classed as cell-based, human. Put shortly:
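Huh-7 cells switched to starvation DMEM (5% LPDS, 2 µM lovastatin, 10 µM mevalonate) and treated 16 h with compound, top 3000 nM, 3-fold dilutions, 5 concentrations. FASN mRNA by RT-qPCR; inhibition relative to DMSO, IC50 from four-parameter fit.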
In general terms: In qPCR the cycle at which signal appears reflects the starting amount.

Setting [4] is: FaSSIF, pH 6.5, fassif, kinetic from dmso stock.

Each structure is given as a SMILES string. ≈ marks a conversion by molar mass, not a printed value. Read-outs that look alike come from different tables or passages of the source. Some results are limits rather than exact numbers.

One may read the solubility as how much of the substance goes into solution per volume. A lower solubility goes with little dissolved substance. What is called IC50 is the concentration needed to halve the response being measured. `C[C@H](CCCC(O)c1c(F)cc(F)nc1F)[C@H]1CC[C@H]2[C@H]3[C@H](CC[C@]12C)[C@@]1(C)CC[C@H](O)[C@H](O)[C@@H]1CC3(F)F` (stereo partly drawn) [Compound 165, (1R,3aS,3bS,5aR,6R,7S,9aR,9bS,11aR)-4,4-difluoro-1-[(2R)-6-hydroxy-6-(2,4,6-trifluoropyridin-3-yl)hexan-2-yl]-9a,11a-dimethylhexadecahydro-1H-cyclopenta[1,2-a]phenanthrene-6,7-diol] showed a solubility at 1 h in series [1] (setting [4]) of 87.4 µM (≈ 48.9 µg/mL). In addition, the 50% inhibitory concentration (IC50) in series [2] (Homo sapiens, Huh-7, 16 h) came to 0.099 µM.

The molecule `C[C@H](CCCC(O)c1cccc2c1cnn2C)[C@H]1CC[C@H]2[C@H]3[C@H](CC[C@]12C)[C@@]1(C)CC[C@H](O)[C@H](O)[C@@H]1CC3(F)F` (single isomer, unassigned) [Compound 250, (1R,3aS,3bS,5aR,6R,7S,9aR,9bS,11aR)-4,4-difluoro-1-[(2R,6R)-6-hydroxy-6-(1-methylindazol-4-yl)hexan-2-yl]-9a,11a-dimethylhexadecahydro-1H-cyclopenta[1,2-a]phenanthrene-6,7-diol or (1R,3aS,3bS,5aR,6R,7S,9aR,9bS,11aR)-4,4-difluoro-1-[(2R,6S)-6-hydroxy-6-(1-methylindazol-4-yl)hexan-2-yl]-9a,11a-dimethylhexadecahydro-1H-cyclopenta[1,2-a]phenanthrene-6,7-diol] gave a solubility at 1 h in series [1] (60 min) of 32.95 µM (≈ 18.4 µg/mL). For the same molecule, the concentration for half-maximal inhibition (IC50) in series [2] (16 hours) amounted to 0.066 µM.

Regarding `C[C@H](CCCC(O)c1nccn1C)[C@H]1CC[C@H]2[C@H]3[C@H](CC[C@]12C)[C@@]1(C)CC[C@H](O)[C@H](O)[C@@H]1CC3(F)F` (stereo partly drawn) [Compound 223, (1R,3aS,3bS,5aR,6R,7 S,9aR,9bS,11aR)-4,4-Difluoro-1-[(2R)-6-hydroxy-6-(3-methylimidazol-2-yl)hexan-2-yl]-9a,11a-dimethylhexadecahydro-1H-cyclopenta[1,2-a]phenanthrene-6,7-diol], the solubility at 1 h in series [1] (setting [4]) is 305 µM (≈ 155 µg/mL). In series [2] (Homo sapiens, Huh-7, 16 h), the half-inhibitory concentration (IC50) was 0.093 µM.

In turn, `COc1cc(F)c([C@H](O)CCC[C@@H](C)[C@H]2CC[C@H]3[C@H]4[C@H](CC[C@]23C)[C@@]2(C)CC[C@H](O)[C@H](O)[C@@H]2CC4(F)F)c(F)n1` (single isomer, unassigned) [Compound 240] returned a solubility at 1 h in series [1] (setting [4]) of 146 µM (≈ 83.4 µg/mL). In series [2] (Homo sapiens, Huh-7, 16 h), the IC50 stood at 0.042 µM.

For `C[C@H](CCCC(O)c1nccc2c1OC(F)(F)O2)[C@H]1CC[C@H]2[C@H]3[C@H](CC[C@]12C)[C@@]1(C)CC[C@H](O)[C@H](O)[C@@H]1CC3(F)F` (stereo partly drawn) [Compound 296, (1R,3aS,3bS,5aR,6R,7 S,9aR,9bS,11aR)-1-[(2R)-6-(2,2-Difluoro[1,3]dioxolo[4,5-c]pyridin-4-yl)-6-hydroxyhexan-2-yl]-4,4-difluoro-9a,11a-dimethylhexadecahydro-1H-cyclopenta[1,2-a]phenanthrene-6,7-diol], in series [1] (setting [4]), the solubility at 1 h is 69.3 µM (≈ 40.6 µg/mL). Also, the IC50 in series [2] (Homo sapiens, Huh-7, 16 h) came to 0.226 µM.

In series [1] (setting [4]), `COc1cc(F)c(C(O)CCC[C@@H](C)[C@H]2CC[C@H]3[C@H]4[C@H](CC[C@]23C)[C@@]2(C)CC[C@H](O)[C@H](O)[C@@H]2CC4(F)F)c(F)c1` (stereo partly drawn) [Compound 197] gave a solubility at 1 h of 328 µM (≈ 187 µg/mL). Also, in series [2] (Homo sapiens, Huh-7, 16 h), the 50% inhibitory concentration (IC50) turned out to be 0.073 µM.

Consider `C[C@H](CCC[C@@H](O)c1ccccn1)[C@H]1CC[C@H]2[C@H]3[C@H](CC[C@]12C)[C@@]1(C)CC[C@H](O)[C@H](O)[C@@H]1CC3(F)F` [Compound 92, (1R,3aS,3bS,5aR,6R,7S,9aR,9bS,11aR)-4,4-difluoro-1-[(2R,6R)-6-hydroxy-6-(pyridin-2-yl)hexan-2-yl]-9a,11a-dimethylhexadecahydro-1H-cyclopenta[1,2-a]phenanthrene-6,7-diol], for which the half-maximal inhibitory concentration (IC50) in series [3] (Homo sapiens, Huh-7, 16 h) is under 0.2 µM; in series [2] (Homo sapiens, Huh-7, 16 h), 0.371 µM.

In the case of `COc1cccc(F)c1[C@H](O)CC[C@@H](C)[C@H]1CC[C@H]2[C@H]3[C@H](CC[C@]12C)[C@@]1(C)CC[C@H](O)[C@H](O)[C@@H]1CC3(F)F` [Compound 346, (1R,3aS,3bS,5aR,6R,7S,9aR,9bS,11aR)-4,4-difluoro-1-[(2R,5R)-5-(2-fluoro-6-methoxyphenyl)-5-hydroxypentan-2-yl]-9a,11a-dimethylhexadecahydro-1H-cyclopenta[1,2-a]phenanthrene-6,7-diol], the IC50 was under 0.2 µM in series [3] (Homo sapiens, Huh-7, 16 h) and 0.056 µM in series [2] (Homo sapiens, Huh-7, 16 h).

Turning to `COc1cc(F)ccc1C(O)CCC[C@@H](C)[C@H]1CC[C@H]2[C@H]3[C@H](CC[C@]12C)[C@@]1(C)CC[C@H](O)C(=O)[C@@H]1CC3(F)F` (stereo partly drawn) [Compound 184, (1R,3aS,3bS,5aR,7S,9aR,9bS,11aR)-4,4-difluoro-1-[(2R)-6-(4-fluoro-2-methoxyphenyl)-6-hydroxyhexan-2-yl]-7-hydroxy-9a,11a-dimethylhexadecahydro-1H-cyclopenta[1,2-a]phenanthren-6-one], the IC50 in series [3] (Homo sapiens, Huh-7, 16 h) is under 0.2 µM; in series [2] (Homo sapiens, Huh-7, 16 h), 0.031 µM.

`COc1ccc(C(O)CCC[C@@H](C)[C@H]2CC[C@H]3[C@H]4[C@H](CC[C@]23C)[C@@]2(C)CC[C@H](O)[C@H](O)[C@@H]2CC4(F)F)c(F)n1` (single isomer, unassigned) [Compound 241, (1R,3aS,3bS,5aR,6R,7S,9aR,9bS,11aR)-4,4-difluoro-1-[(2R,6R)-6-(2-fluoro-6-methoxypyridin-3-yl)-6-hydroxyhexan-2-yl]-9a,11a-dimethylhexadecahydro-1H-cyclopenta[1,2-a]phenanthrene-6,7-diol or (1R,3aS,3bS,5aR,6R,7S,9aR,9bS,11aR)-4,4-difluoro-1-[(2R,6S)-6-(2-fluoro-6-methoxypyridin-3-yl)-6-hydroxyhexan-2-yl]-9a,11a-dimethylhexadecahydro-1H-cyclopenta[1,2-a]phenanthrene-6,7-diol]: the IC50 in series [3] (Homo sapiens, Huh-7, 16 h) is under 0.2 µM; in series [2] (Homo sapiens, Huh-7, 16 h), 0.14 µM.

Turning to `C[C@H](CCC[C@@H](O)c1nc2cnccc2n1C)[C@H]1CC[C@H]2[C@H]3[C@H](CC[C@]12C)[C@@]1(C)CC[C@H](O)[C@H](O)[C@@H]1CC3(F)F` (stereo in doubt) [Compound 326, (1R,3aS,3bS,5aR,6R,7S,9aR,9bS,11aR)-4,4-difluoro-1-[(2R,6R)-6-hydroxy-6-(1-methylimidazo[5,4-c]pyridin-2-yl)hexan-2-yl]-9a,11a-dimethylhexadecahydro-1H-cyclopenta[1,2-a]phenanthrene-6,7-diol], the half-inhibitory concentration (IC50) is under 0.2 µM in series [3] (Homo sapiens, Huh-7, 16 h) and 0.011 µM in series [2] (Homo sapiens, Huh-7, 16 h).

Regarding `COc1ccc(C(O)CCC[C@@H](C)[C@H]2CC[C@H]3[C@H]4[C@H](CC[C@]23C)[C@@]2(C)CC[C@H](O)[C@H](O)[C@@H]2CC4(F)F)c(F)c1` (stereo partly drawn) [Compound 67, (1R,3aS,3bS,5aR,6R,7S,9aR,9bS,11aR)-4,4-difluoro-1-[(2R)-6-(2-fluoro-4-methoxyphenyl)-6-hydroxyhexan-2-yl]-9a,11a-dimethylhexadecahydro-1H-cyclopenta[1,2-a]phenanthrene-6,7-diol], the IC50 in series [3] (Homo sapiens, Huh-7, 16 h) was 0.2 to 0.5 µM; in series [2] (Homo sapiens, Huh-7, 16 h), 0.203 µM.

Turning to `COc1ncccc1C(O)CCC[C@@H](C)[C@H]1CC[C@H]2[C@H]3[C@H](CC[C@]12C)[C@@]1(C)CC[C@H](O)[C@H](O)[C@@H]1CC3(F)F` (single isomer, unassigned) [Compound 193, (1R,3aS,3bS,5aR,6R,7S,9aR,9bS,11aR)-4,4-difluoro-1-[(2R,6R)-6-hydroxy-6-(2-methoxypyridin-3-yl)hexan-2-yl]-9a,11a-dimethylhexadecahydro-1H-cyclopenta[1,2-a]phenanthrene-6,7-diol or (1R,3aS,3bS,5aR,6R,7S,9aR,9bS,11aR)-4,4-difluoro-1-[(2R,6S)-6-hydroxy-6-(2-methoxypyridin-3-yl)hexan-2-yl]-9a,11a-dimethylhexadecahydro-1H-cyclopenta[1,2-a]phenanthrene-6,7-diol], the figures for the concentration for half-maximal inhibition (IC50) in series [3] and in series [2] (16 hours) were 0.2 to 0.5 µM and 0.072 µM, respectively.

For the molecule `C[C@H](CCCC(O)c1ccccc1F)[C@H]1CC[C@H]2C3=C(F)CC4C[C@@H](O)CC[C@]4(C)[C@H]3CC[C@]12C` (stereo partly drawn) [Compound 75, (1R,3aR,7S,9aS,9bR,11aR)-4-fluoro-1-[(2R)-6-(2-fluorophenyl)-6-hydroxyhexan-2-yl]-9a,11a-dimethyl-2,3,3a,5,5a,6,7,8,9,9a,9b,10,11,11a-tetradecahydro-1H-cyclopenta[1,2-a]phenanthren-7-ol], the concentration for half-maximal inhibition (IC50) in series [3] (Homo sapiens, Huh-7, 16 h) was under 0.2 µM; in series [2] (Homo sapiens, Huh-7, 16 h), 0.37 µM.

With `COc1cc(F)cc(F)c1C(O)CCC[C@@H](C)[C@H]1CC[C@H]2C3CC[C@H]4[C@@H](O)[C@@H](O)CC[C@]4(C)[C@H]3CC[C@]12C` (stereo in doubt) [Compound 104, (1R,3aS,5aR,6R,7S,9aR,9bS,11aR)-1-[(2R)-6-(2,4-Difluoro-6-methoxyphenyl)-6-hydroxyhexan-2-yl]-9a,11a-dimethylhexadecahydro-1H-cyclopenta[1,2-a]phenanthrene-6,7-diol], the IC50 was 0.2 to 0.5 µM in series [3] (Homo sapiens, Huh-7, 16 h) and 0.25 µM in series [2] (Homo sapiens, Huh-7, 16 h).
